According to patent US6737383B1, “Herbicidal oxadiazolidines” (priority 1999, dated 2004):

Legend:
corn = test: Test B pre/postemergence corn; format: in vivo, Zea mays
Method in brief: (§1)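 Test chemicals in a non-phytotoxic solvent mixture with surfactant were sprayed preemergence onto planted seeds and postemergence onto plants 2 to 18 cm tall (1- to 4-leaf stage). After twelve to sixteen days in a greenhouse, injury was visually rated against untreated controls from 0 (no effect) to 10 (complete control).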

surinam grass = test: Test B pre/postemergence surinam grass; format: in vivo, Brachiaria decumbens
Method in brief: as §1

rape = test: Test B pre/postemergence rape; format: in vivo, Brassica napus
Method in brief: as §1

cocklebur = test: Test B pre/postemergence cocklebur; format: in vivo, Xanthium strumarium
Method in brief: as §1

rice = test: Test B flood test rice; format: in vivo, Oryza sativa
Method in brief: (§2)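 Flood test on plants grown to the 2-leaf stage; treated plants kept in greenhouse twelve to sixteen days, then visually rated against controls on a 0 (no effect) to 10 (complete control) scale.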

crabgrass = test: Test B pre/postemergence crabgrass; format: in vivo, Digitaria sanguinalis
Method in brief: as §1

blackgrass = test: Test B pre/postemergence blackgrass; format: in vivo, Alopecurus myosuroides
Method in brief: as §1

soybean = test: Test B pre/postemergence soybean; format: in vivo, Glycine max
Method in brief: as §1

bamyardgrass = test: Test B flood test barnyardgrass; format: in vivo, Echinochloa crus-galli
Method in brief: as §2

duck salad = test: Test B flood test duck salad; format: in vivo, Heteranthera limosa
Method in brief: as §2

giant foxtail = test: Test B pre/postemergence giant foxtail; format: in vivo, Setaria faberii
Method in brief: as §1

smallflower flatsedge = test: Test B flood test smallflower flatsedge; format: in vivo, Cyperus difformis
Method in brief: as §2

purple nutsedge = test: Test B pre/postemergence purple nutsedge; format: in vivo, Cyperus rotundus
Method in brief: as §1

wheat = test: Test B pre/postemergence wheat; format: in vivo, Triticum aestivum
Method in brief: as §1

pigweed = test: Test B pre/postemergence pigweed; format: in vivo, Amaranthus retroflexus
Method in brief: as §1

sugar beet = test: Test B pre/postemergence sugar beet; format: in vivo, Beta vulgaris
Method in brief: as §1

velvetleaf = test: Test B pre/postemergence velvetleaf; format: in vivo, Abutilon theophrasti
Method in brief: as §1

wild oat = test: Test B pre/postemergence wild oat; format: in vivo, Avena fatua
Method in brief: as §1

morningglory = test: Test B pre/postemergence morningglory; format: in vivo, Ipomoea hederacea
Method in brief: as §1

[1] = Postemergence, Rate 125 g/ha, scale 0 to 10, 0 is no effect, 10 is complete control
[2] = Postemergence, Rate 250 g/ha, scale 0 to 10
[3] = Postemergence, Rate 500 g/ha, scale 0 to 10, 0 is no effect, 10 is complete control
[4] = Preemergence, Rate 62 g/ha, scale of 0 to 10 where 0 is no effect and 10 is complete control
[5] = Preemergence, Rate 125 g/ha, scale 0 to 10, 0 is no effect, 10 is complete control
[6] = Preemergence, Rate 500 g/ha, scale of 0 to 10 where 0 is no effect and 10 is complete control
[7] = Rate 62 g/ha, Postemergence, scale 0 to 10, 0 no effect, 10 complete control
[8] = Preemergence, Rate 250 g/ha, scale 0 to 10, 0 is no effect, 10 is complete control
[9] = Rate 62 g/ha, flood test species, Pre-emergence, visual evaluation after twelve to sixteen days
[10] = Rate 125 g/ha, under heading Pre-emergence, flood test species, visual evaluation after twelve to sixteen days
[11] = Rate 250 g/ha, Pre-emergence (flood test species), scale 0 to 10, 0 is no effect, 10 is complete control
[12] = Rate 500 g/ha, Pre-emergence section of Table B, 0 to 10 scale (0 no effect, 10 complete control)

C=C(Cn1c(=O)on(C(=O)N(c2ccccc2)C(C)C)c1=O)c1cccnc1 [Compound 498]
Corn plant response rating (corn; [1]): 0
Corn plant response rating (corn; [2]): 0
Plant response rating, Corn (corn; [3]): 0
Plant response rating, Corn (corn; [4]): 0
Corn plant response rating (corn; [5]): 0
Corn plant response rating (corn; [6]): 0
Corn plant response rating (corn; [7]): 0
B. signalgrass plant response rating (surinam grass; [1]): 0
B. signalgrass plant response rating (surinam grass; Postemergence, Rate 250 g/ha, scale 0 to 10, 0 no effect, 10 complete control): 0
Plant response rating, B. signalgrass (surinam grass; [3]): 0
Plant response rating, B. signalgrass (surinam grass; [4]): 0
B. signalgrass plant response rating (surinam grass; [5]): 0
B. signalgrass plant response rating (surinam grass; [8]): 0
B. signalgrass plant response rating (surinam grass; Preemergence, Rate 500 g/ha, scale 0 to 10, 0 is no effect, 10 is complete control): 0
B. signalgrass plant response rating (surinam grass; [7]): 0
Rape plant response rating (rape; [1]): 0
Plant response rating, Rape (rape; [3]): 0
Plant response rating, Rape (rape; [4]): 0
Rape plant response rating (rape; [5]): 0
Rape plant response rating (rape; [6]): 0
Rape plant response rating (rape; [7]): 0
Cocklebur plant response rating (cocklebur; [1]): 0
Cocklebur plant response rating (cocklebur; [2]): 0
Plant response rating, Cocklebur (cocklebur; [3]): 0
Plant response rating, Cocklebur (cocklebur; [4]): 0
Cocklebur plant response rating (cocklebur; [5]): 0
Cocklebur plant response rating (cocklebur; [8]): 0
Cocklebur plant response rating (cocklebur; [6]): 0
Cocklebur plant response rating (cocklebur; [7]): 0
Plant response rating, Rice (0 to 10 scale, 0 is no effect, 10 is complete control) (rice; [9]): 0
Rice plant response rating (0 to 10 scale, 0 is no effect, 10 is complete control) (rice; [10]): 0
Rice plant response rating (rice; [11]): 0
Rice plant response rating (rice; [12]): 0
Crabgrass plant response rating (crabgrass; [2]): 0
Plant response rating, Crabgrass (crabgrass; [3]): 2
Plant response rating, Crabgrass (crabgrass; [4]): 0
Crabgrass plant response rating (crabgrass; [5]): 2
Crabgrass plant response rating (crabgrass; [6]): 5
Crabgrass plant response rating (crabgrass; [7]): 0
Blackgrass plant response rating (blackgrass; [1]): 0
Plant response rating, Blackgrass (blackgrass; [3]): 5
Plant response rating, Blackgrass (blackgrass; [4]): 0
Blackgrass plant response rating (blackgrass; [5]): 0
Blackgrass plant response rating (blackgrass; [8]): 0
Blackgrass plant response rating (blackgrass; [6]): 0
Blackgrass plant response rating (blackgrass; [7]): 0
Soybean plant response rating (soybean; [1]): 1
Plant response rating, Soybean (soybean; [3]): 1
Plant response rating, Soybean (soybean; [4]): 0
Soybean plant response rating (soybean; [5]): 0
Soybean plant response rating (soybean; [6]): 0
Soybean plant response rating (soybean; [7]): 1
Plant response rating, Barnyardgrass (0 to 10 scale, 0 is no effect, 10 is complete control) (bamyardgrass; [9]): 0
Barnyardgrass plant response rating (0 to 10 scale, 0 is no effect, 10 is complete control) (bamyardgrass; [10]): 0
Barnyardgrass plant response rating (bamyardgrass; [11]): 0
Barnyardgrass plant response rating (bamyardgrass; [12]): 0
Plant response rating, Ducksalad (0 to 10 scale, 0 is no effect, 10 is complete control) (duck salad; [9]): 0
Ducksalad plant response rating (0 to 10 scale, 0 is no effect, 10 is complete control) (duck salad; [10]): 0
Ducksalad plant response rating (duck salad; [11]): 0
Ducksalad plant response rating (duck salad; [12]): 0
Giant foxtail plant response rating (giant foxtail; [1]): 2
Plant response rating, Giant foxtail (giant foxtail; [3]): 3
Plant response rating, Giant foxtail (giant foxtail; [4]): 0
Giant foxtail plant response rating (giant foxtail; [5]): 2
Giant foxtail plant response rating (giant foxtail; [6]): 8
Giant foxtail plant response rating (giant foxtail; [7]): 0
Plant response rating, S. Flatsedge (0 to 10 scale, 0 is no effect, 10 is complete control) (smallflower flatsedge; [9]): 0
S. Flatsedge plant response rating (0 to 10 scale, 0 is no effect, 10 is complete control) (smallflower flatsedge; [10]): 0
S. Flatsedge plant response rating (smallflower flatsedge; [11]): 0
S. Flatsedge plant response rating (smallflower flatsedge; [12]): 0
Nutsedge plant response rating (purple nutsedge; [1]): 0
Plant response rating, Nutsedge (purple nutsedge; [3]): 0
Plant response rating, Nutsedge (purple nutsedge; [4]): 0
Nutsedge plant response rating (purple nutsedge; [5]): 0
Nutsedge plant response rating (purple nutsedge; [6]): 0
Nutsedge plant response rating (purple nutsedge; [7]): 0
Wheat plant response rating (wheat; [1]): 0
Plant response rating, Wheat (wheat; [3]): 0
Plant response rating, Wheat (wheat; [4]): 0
Wheat plant response rating (wheat; [5]): 0
Wheat plant response rating (wheat; [6]): 0
Wheat plant response rating (wheat; [7]): 0
Redroot pigweed plant response rating (pigweed; [1]): 0
Plant response rating, Redroot pigweed (pigweed; [3]): 0
Plant response rating, Redroot pigweed (pigweed; [4]): 0
Redroot pigweed plant response rating (pigweed; [5]): 0
Redroot pigweed plant response rating (pigweed; [6]): 0
Redroot pigweed plant response rating (pigweed; [7]): 0
Sugarbeets plant response rating (sugar beet; [1]): 0
Plant response rating, Sugarbeets (sugar beet; [3]): 0
Plant response rating, Sugarbeets (sugar beet; [4]): 0
Sugarbeets plant response rating (sugar beet; [5]): 0
Sugarbeets plant response rating (sugar beet; [6]): 0
Sugarbeets plant response rating (sugar beet; [7]): 0
Velvetleaf plant response rating (velvetleaf; [1]): 0
Plant response rating, Velvetleaf (velvetleaf; [3]): 2
Plant response rating, Velvetleaf (velvetleaf; [4]): 0
Velvetleaf plant response rating (velvetleaf; [5]): 0
Velvetleaf plant response rating (velvetleaf; [6]): 0
Velvetleaf plant response rating (velvetleaf; [7]): 0
Wild oats plant response rating (wild oat; [1]): 0
Plant response rating, Wild oats (wild oat; [3]): 0
Plant response rating, Wild oats (wild oat; [4]): 0
Wild oats plant response rating (wild oat; [5]): 0
Wild oats plant response rating (wild oat; [6]): 0
Wild oats plant response rating (wild oat; [7]): 0
Morningglory plant response rating (morningglory; [1]): 3
Plant response rating, Morningglory (morningglory; [3]): 4
Plant response rating, Morningglory (morningglory; [4]): 0
Morningglory plant response rating (morningglory; [5]): 0
Morningglory plant response rating (morningglory; [6]): 0
Morningglory plant response rating (morningglory; [7]): 1
